Measured values taken from ChEMBL document CHEMBL4651402, “Screening of ~5500 FDA-approved drugs and clinical candidates for anti-SARS-CoV-2 activity” (2021).
pIC50: −log10 of the molar value.

System: SARS-CoV-2
Assay: microbe, parasite or virus in culture
Conditions: Severe acute respiratory syndrome coronavirus 2, Vero C1008, 48 h; for IC50: read-out: pIC50 (converted)

| SMILES | pIC50 | IC50 |
| --- | --- | --- |
| CCC(COC(=O)c1cc(OC)c(OC)c(OC)c1)(c1ccccc1)N(C)C (centres undefined) [TRIMEBUTINE] | < 4.70 | > 20 µM |
| C1CN1c1nc(N2CC2)nc(N2CC2)n1 | < 4.70 | > 20 µM |
| CCC(=O)O[C@]1(C(=O)CCl)[C@@H](C)C[C@H]2[C@@H]3CCC4=CC(=O)C=C[C@]4(C)[C@@]3(F)[C@@H](O)C[C@@]21C [CLOBETASOL PROPIONATE] | < 4.70 | > 20 µM |
| O=c1[nH]c2cc(Cl)ccc2n1C1CCN(CCCC(c2ccc(F)cc2)c2ccc(F)cc2)CC1 [CLOPIMOZIDE] | < 4.70 | > 20 µM |
| COc1cccc(OC)c1-c1cc(C(=O)NC2(C(=O)O)C3CC4CC(C3)CC2C4)nn1-c1ccnc2cc(Cl)ccc12 (centres undefined) [REMINERTANT] | < 4.70 | > 20 µM |
| CCc1cn([C@H]2C[C@H](O)[C@@H](CO)O2)c(=O)[nH]c1=O [EDOXUDINE] | < 4.00 | > 100 µM |
| CC(C)(C)c1ccc(S(=O)(=O)Nc2ccc(Cl)cc2C(=O)c2cc[n+]([O-])cc2)cc1 [VERCIRNON] | < 4.70 | > 20 µM |
| CN1C(C)(C)CCCC1(C)C [PEMPIDINE] | < 4.70 | > 20 µM |
| COc1cccc(OC)c1-c1ccc(C[C@H](NC(=O)c2c(Cl)cccc2Cl)C(=O)O)cc1 | < 4.70 | > 20 µM |
| CO[C@H]1C=C2CCN(C)[C@H]2C2c3cc4c(cc3C(=O)O[C@@H]21)OCO4 (some centres undefined) | < 4.70 | > 20 µM |
| Oc1ccccc1 [PHENOL] | < 4.70 | > 20 µM |
| CCc1c(C(=O)c2cc(C)cc(C)c2)n(CC2CC=CC2)c(=O)[nH]c1=O | < 4.70 | > 20 µM |
| CN(C)CCCOc1nn(Cc2ccccc2)c2ccccc12 [BENZYDAMINE] | < 4.70 | > 20 µM |
| O=C(O)c1cc2cc(F)ccc2[nH]1 [5-FLUOROINDOLE-2-CARBOXYLIC ACID] | < 4.70 | > 20 µM |
| O=c1[nH]c(=O)n(C2CC(O)C(CO)O2)cc1I (centres undefined) | < 4.70 | > 20 µM |
| NCC(CC(=O)O)c1ccccc1 (centres undefined) [PHENIBUT] | < 4.70 | > 20 µM |
| CCN1CCCC1CNC(=O)c1cc(S(=O)(=O)CC)c(N)cc1OC (centres undefined) [AMISULPRIDE] | < 4.70 | > 20 µM |
| CN1CCN(c2c(F)cc3c(=O)c(C(=O)O)cn(CCF)c3c2F)CC1 [FLEROXACIN] | < 4.70 | > 20 µM |
| CC1(C)S[C@@H]2[C@H](NC(=O)[C@H](N)c3ccccc3)C(=O)N2[C@H]1C(=O)OC1OC(=O)c2ccccc21 (some centres undefined) [TALAMPICILLIN] | < 4.70 | > 20 µM |
| CC(C)=CCCC(C)C1CCC2(C)C3=C(CCC12C)C1(C)CCC(O)C(C)(C)C1CC3 (centres undefined) | < 4.70 | > 20 µM |
| O=C(O)c1cn(C2CC2)c2cc(N3CCC(O)(COc4ccc(N5C[C@H](CO)OC5=O)cc4F)CC3)c(F)cc2c1=O [CADAZOLID] | < 4.70 | > 20 µM |
| CN1CCN(C2=Nc3ccccc3Sc3ccc(Cl)cc32)CC1 [CLOTHIAPINE] | < 4.70 | > 20 µM |
| CN1[C@@H]2CC(=O)C[C@H]1[C@H](O)C2 | < 4.70 | > 20 µM |
| COc1c(O[C@@H]2O[C@H](CO)[C@@H](O)[C@H](O)[C@H]2O)cc2c(c1OC)-c1ccc(SC)c(=O)cc1[C@@H](NC(C)=O)CC2 [THIOCOLCHICOSIDE] | < 4.70 | > 20 µM |
| c1ccc2c(CC3=NCCN3)cccc2c1 [NAPHAZOLINE] | < 4.70 | > 20 µM |
| COc1ccc(Cl)c2c1CCCC2N(C)C (centres undefined) [LOMETRALINE] | < 4.70 | > 20 µM |

| SMILES | pIC50 | IC50 |
| --- | --- | --- |
| CCOP(=S)(Oc1cccc2cccnc12)c1ccccc1 (centres undefined) [QUINTIOFOS] | < 4.70 | > 20 µM |
| CC(C)n1c(/C=C/[C@@H](O)C[C@@H](O)CC(=O)O)c(-c2ccc(F)cc2)c2ccccc21.CC(C)n1c(/C=C/[C@H](O)C[C@H](O)CC(=O)O)c(-c2ccc(F)cc2)c2ccccc21 | < 4.70 | > 20 µM |
| CC(=O)N(O)CCCCCNC(=O)CCC(=O)N(O)CCCCCNC(=O)CCC(=O)N(O)CCCCCN [DEFEROXAMINE] | < 4.70 | > 20 µM |
| Nc1nc2[nH]cnc2c(=S)[nH]1 [THIOGUANINE] | < 4.70 | > 20 µM |
| CC(N)Cc1ccc(O)cc1 (centres undefined) [HYDROXYAMPHETAMINE] | < 4.70 | > 20 µM |
| CC(C)=CCC/C(C)=C/CC/C(C)=C/CN1CCN(Cc2ccc3c(c2)OCO3)CC1 [PIFARNINE] | < 4.70 | > 20 µM |
| CCN1CCN(C(=O)NC(C(=O)NC2C(=O)N3C2SC(C)(C)C3C(=O)O)c2ccccc2)C(=O)C1=O (centres undefined) | < 4.70 | > 20 µM |
| Clc1ccc(CO/N=C(\Cn2ccnc2)c2ccc(Cl)cc2Cl)c(Cl)c1 [OXICONAZOLE] | < 4.70 | > 20 µM |
| CC[C@H]1OC(=O)[C@H](C)[C@@H](O[C@H]2C[C@@](C)(OC)[C@@H](O)[C@H](C)O2)[C@H](C)[C@@H](O[C@@H]2O[C@H](C)C[C@H](N(C)C(C)C)[C@H]2O)[C@@]2(C)CC(C)=C(O2)[C@H](C)[C@@H](O)[C@]1(C)O [IDREMCINAL] | < 4.70 | > 20 µM |
| CCCCc1nc(Cl)c(CO)n1Cc1ccc(-c2ccccc2-c2nnn[nH]2)cc1 [LOSARTAN] | < 4.70 | > 20 µM |
| CC(CCC(=O)O)C1CCC2C3C[C@H](O)[C@@H]4C[C@H](O)CC[C@]4(C)C3CC[C@]12C (some centres undefined) | < 4.70 | > 20 µM |
| Cn1c(NCCN(CCO)CCCc2ccc([N+](=O)[O-])cc2)cc(=O)n(C)c1=O [NIFEKALANT] | < 4.70 | > 20 µM |
| Cc1c2ccncc2c(C)c2c1[nH]c1ccccc12 [ELLIPTECINE] | < 4.70 | > 20 µM |
| CCCN(CCC)C(=O)Cc1c(-c2ccc(Cl)cc2)nc2ccc(Cl)cn12 [ALPIDEM] | < 4.70 | > 20 µM |
| c1ccc2c(c1)cc1ccc3cccc4ccc2c1c34 | < 4.70 | > 20 µM |
| CC12CCC3C(CCC4CC(O)CCC43C)C1CCC2=O (centres undefined) | < 4.70 | > 20 µM |
| N#Cc1ccc(C(c2ccc(C#N)cc2)n2cncn2)cc1 [LETROZOLE] | < 4.70 | > 20 µM |
| CCN1CCCC1CNC(=O)c1cc(S(N)(=O)=O)ccc1OC (centres undefined) [SULPIRIDE] | < 4.70 | > 20 µM |
| CN(C)CCCC1(c2ccc(F)cc2)OCc2cc(C#N)ccc21 (centres undefined) [CITALOPRAM] | < 4.70 | > 20 µM |
| COc1ccc2c(c1)C(C(=O)N(Cc1ccc(N(C)C)cc1)c1ccc(C(C)C)cc1)CCC2 (centres undefined) | < 4.70 | > 20 µM |
| CCN(CC)CCOC(=O)C(C)(c1ccccc1)c1ccccc1 [APROFENE] | < 4.70 | > 20 µM |
| CC(=O)C1CCC2C3CCC4=CC(=O)CCC4C3CCC12C (centres undefined) | < 4.70 | > 20 µM |
| CO[C@@H]1[C@H](OP(=O)(OC[C@H]2O[C@@H](n3cnc4c(N)ncnc43)C[C@@H]2O)SCOC(=O)OC(C)C)[C@@H](CO)O[C@H]1n1ccc(=O)[nH]c1=O (some centres undefined) [INARIGIVIR SOPROXIL] | < 4.70 | > 20 µM |
| CC12CCC3C(CCC4=CC(=O)C=CC43C)C1CCC(=O)O2 (centres undefined) | < 4.70 | > 20 µM |
| CN(C(=O)C(Cl)Cl)c1ccc(OC(=O)c2ccco2)cc1 [DILOXANIDE FUROATE] | < 4.70 | > 20 µM |
| CC(=O)NC1CCSC1=O (centres undefined) [CITIOLONE] | < 4.70 | > 20 µM |
